Consider eight molecules from PMC12716216, “Characterization of Ligand Binding in Human Serum Albumin from Atomistic Energy Transfer Simulations” (Small Methods, 2025).

Values joined by “and” are separate entries in the source; they are usually repeats but may differ in a detail not shown here. Equal values may be shown once. Read-outs that look alike come from different tables or passages of the source.

Data set [1] deals with human serum albumin (HSA) (Homo sapiens, UniProt P02768). In words: Fluorescence ligand titration of HSA: quenching of intrinsic protein (Trp214) fluorescence, fitted Kd, n and FRET efficiency. How it is done:
For absorbance and fluorescence, solutions of the ligand, protein, and protein‐ligand complexes at different concentrations were prepared using PBS 1x buffer. […] The fluorescence intensities of protein‐ligand complexes were corrected for inner‐filter effects based on the absorbance of the ligands at the excitation and emission wavelengths ( IDA,cor=IDA10^(Absex+Absem)/2 ).^[ [19] ^] The fluorescence of the ligands in the absence of HSA was also recorded at 100 µM concentration. Spectral overlaps used to compute FRET rates were computed from the measured area‐normalized D emission and A absorption spectra and are reported in the Supporting Information. Protein and ligand solutions were freshly prepared, and titrations were carried out in the cuvette right before the measurement. The average of three measurements for the complexes at each ligand concentration was used to plot the spectra and compute FRET efficiencies following this formula: (10) E=1−IDA/ID where IDA is the intensity of the complex and ID the intensity of HSA in the absence of ligand.
Efficiencies were corrected based on the percentage of protein‐ligand complex formed in each solution, based on the measured Kd values, then final efficiencies were averaged over the three concentrations.

A further data set deals with HSA. The following applies: cited from earlier work.
[2] abbreviates: Kd, excitation 280 nm, IFE-corrected.
Where [3] appears, read: Kd, excitation 280 nm, no correction.
Setting [4] is: Kd, excitation 295 nm, no correction.
The mark [5] stands for this setting: dissociation binding constant Kd, 5 µM HSA, PBS 1x, 25 °C, 295 nm excitation, IFE-corrected (carprofen: 280 nm).
The mark [6] stands for this setting: 5 µM HSA, PBS 1x, 295 nm excitation, IFE-corrected (carprofen: 280 nm).
Setting [7] is: corrected by fraction of ligand-bound protein, 295 nm excitation, IFE-corrected (carprofen: 280 nm).
The mark [8] stands for this setting: excitation 280 nm, IFE-corrected.
Setting [9] is: excitation 280 nm, no correction.
The mark [10] stands for this setting: excitation 295 nm, IFE-corrected.
Setting [11] is: excitation 295 nm, no correction.

Sequence of human serum albumin (HSA) (P02768 25-609): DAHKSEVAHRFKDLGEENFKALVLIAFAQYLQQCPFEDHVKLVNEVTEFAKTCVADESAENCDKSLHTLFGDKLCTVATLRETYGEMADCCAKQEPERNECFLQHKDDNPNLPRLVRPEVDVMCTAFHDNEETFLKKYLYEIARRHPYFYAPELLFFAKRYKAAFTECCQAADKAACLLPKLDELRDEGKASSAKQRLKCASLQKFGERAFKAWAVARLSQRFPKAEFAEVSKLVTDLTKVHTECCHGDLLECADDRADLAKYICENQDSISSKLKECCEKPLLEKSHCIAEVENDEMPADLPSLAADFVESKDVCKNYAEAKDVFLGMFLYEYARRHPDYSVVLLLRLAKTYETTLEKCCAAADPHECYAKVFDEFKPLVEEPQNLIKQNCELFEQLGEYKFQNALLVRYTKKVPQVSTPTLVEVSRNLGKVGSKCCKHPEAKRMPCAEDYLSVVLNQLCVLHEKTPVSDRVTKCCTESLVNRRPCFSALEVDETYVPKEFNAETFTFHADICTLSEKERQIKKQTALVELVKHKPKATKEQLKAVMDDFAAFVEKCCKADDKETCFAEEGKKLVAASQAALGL

One may read the Kd as the concentration at which binding is half-saturated. Consider `Oc1cccc2ccccc12` [1‐naphthol], for which the Eexp in data set [1] was 0.83± 0.01 and 0.46± 0.05 and 0.79± 0.03 and 0.54± 0.03. The “experimental FRET efficiency E (Eexp)” value in data set [1] is 0.46± 0.05 and 0.46. For the same molecule, the “measured FRET efficiency” value in data set [1] was found to be 46%. Moreover, in data set [1], the “solute binding parameter n (Hill coefficient)” value (“solute binding parameter n” below) amounted to 0.73. Further, the Kd in data set [1] (setting [2]) was 128 µM; in data set [1] (setting [3]), 104 µM; in data set [1] (setting [4]) it was 105 µM; in data set [1] (setting [5]), 137 µM.

On to `O=C(O)COc1cccc2cccnc12` [QAA, (quinoline‐8‐yloxy)‐acetic acid], for which the “solute binding parameter n” value in data set [1] (setting [6]) worked out at 0.76. In addition, the equilibrium dissociation constant (Kd) amounted to 74.5 µM in data set [1] (setting [2]); 75.9 µM in data set [1] (setting [3]); 48.1 µM in data set [1] (Kd, excitation 295 nm, IFE-corrected); 54.8 µM in data set [1] (setting [4]); 48 µM in data set [1] (setting [5]). Also, the “experimental FRET efficiency E (Eexp)” value is 0.60 in data set [1] (setting [7]) and 0.60 ± 0.01 in data set [1] (corrected by fraction of ligand-bound protein, 295 nm excitation, IFE-corrected (carprofen: 280 nm), listed as (Quinolin-8-yloxy)-acetic acid). Besides, the Eexp worked out at 0.68± 0.01 in data set [1] (setting [8]), 0.80± 0.01 in data set [1] (setting [9]), 0.60 ± 0.01 in data set [1] (setting [10]) and 0.76± 0.01 in data set [1] (setting [11]). Also, the “measured FRET efficiency” value in data set [1] (from fluorescence data) worked out at 60%.

Turning to `O=C(O)c1c2ccccc2nc2ccccc12` [protonated ACA, 9-Acridinecarboxylic acid (protonated)], the “experimental FRET efficiency E (Eexp)” value in data set [1] (setting [7]) is 0.63 ± 0.02.

Turning to `O=C(O)c1c2ccccc2nc2ccccc12` [ACA, 9‐acridinecarboxylic acid], the “solute binding parameter n” value in data set [1] (setting [6]) is 0.67. The Kd was 17.5 µM in data set [1] (setting [2]), 20.9 µM in data set [1] (setting [3]), 18.3 µM in data set [1] (setting [4]) and 15.5 µM in data set [1] (setting [5]). The “experimental FRET efficiency E (Eexp)” value in data set [1] (setting [7]) is 0.63. Also, the Eexp in data set [1] (setting [8]) is on record as 0.64± 0.02; in data set [1] (setting [9]) it was 0.75± 0.02; in data set [1] (setting [10]), 0.63 ± 0.02; in data set [1] (setting [11]), 0.72± 0.02. Further, the “measured FRET efficiency” value in data set [1] (from fluorescence data) turned out to be 63%.

Consider `COc1ccc2c(c1)c(CC(=O)O)c(C)n2C(=O)c1ccc(Cl)cc1` [indomethacin], for which the Kd in the data set with HSA (read-out: Kd previously reported value) was 6.1 µM.

As to `Oc1ccc2ccccc2c1` [2‐naphthol], in data set [1] (setting [6]), the “solute binding parameter n” value is reported as 0.71. Further, the Kd is 64.5 µM in data set [1] (setting [2]), 77 µM in data set [1] (setting [3]), 6.9 µM in data set [1] (setting [4]) and 6.6 µM in data set [1] (setting [5]). The “experimental FRET efficiency E (Eexp)” value is 0.80 in data set [1] (setting [7]) and 0.80 ± 0.03 in data set [1] (corrected by fraction of ligand-bound protein, 295 nm excitation, IFE-corrected (carprofen: 280 nm), listed as 2-Naphthol). The Eexp in data set [1] (setting [8]) is 0.71± 0.02; in data set [1] (setting [9]), 0.87± 0.03; in data set [1] (setting [10]), 0.80 ± 0.03; in data set [1] (setting [11]) it was 0.82± 0.03. In data set [1] (from fluorescence data), the “measured FRET efficiency” value was found to be 80%.

In the case of `C[C@H](C(=O)O)c1ccc2c(c1)[nH]c1ccc(Cl)cc12` [(S)‐carprofen], the Kd in the data set with HSA (read-out: Kd previous reports) was 0.2 to 0.9 µM; in data set [1] (setting [3]), 3 µM; in data set [1] (setting [4]) it was 2.8 µM; in data set [1] (setting [5]), 1.8 µM. Moreover, the “solute binding parameter n” value in data set [1] (setting [6]) is listed as 0.48. In addition, the “experimental FRET efficiency E (Eexp)” value in data set [1] (setting [7]) was found to be 0.81; in data set [1] (corrected by fraction of ligand-bound protein, 295 nm excitation, IFE-corrected (carprofen: 280 nm), listed as Carprofen), 0.81 ± 0.03. Besides, the Eexp in data set [1] (setting [8]) stood at 0.81 ± 0.03; in data set [1] (setting [9]), 0.89± 0.02; in data set [1] (setting [10]), 0.42± 0.04; in data set [1] (setting [11]), 0.71± 0.03. Further, the “measured FRET efficiency” value in data set [1] (from fluorescence data) is 81%.

With `NCCNc1cccc2ccccc12` [NNE, N‐(1‐naphthyl)ethylenediamine], the “solute binding parameter n” value in data set [1] (setting [6]) is on record as 0.33. In addition, the Kd in data set [1] (setting [2]) worked out at 3.9 µM; in data set [1] (setting [3]), 5.6 µM; in data set [1] (setting [4]) it was 5 µM; in data set [1] (setting [5]), 3.5 µM. Moreover, the “experimental FRET efficiency E (Eexp)” value in data set [1] (setting [7]) is 0.55; in data set [1] (corrected by fraction of ligand-bound protein, 295 nm excitation, IFE-corrected (carprofen: 280 nm), listed as N-(1-Naphthyl)ethylenediamine), 0.55 ± 0.02. For the same molecule, the Eexp in data set [1] (setting [8]) was 0.45± 0.01; in data set [1] (setting [9]), 0.57± 0.03; in data set [1] (setting [10]), 0.55 ± 0.02; in data set [1] (setting [11]) it was 0.67± 0.03. Further, in data set [1] (from fluorescence data), the “measured FRET efficiency” value is 55%.
